Reference: PMC11187542, “Identification of fragments targeting SMYD3 using highly sensitive kinetic and multiplexed biosensor-based screening” (RSC Medicinal Chemistry, 2024)

What was measured:
SMYD3 [1] = target: T1, SMYD3 (Homo sapiens, UniProt Q9H7B4); assay: GCI biosensor multi cycle kinetic confirmation of hits; type: binding; conditions: two-fold serial dilution starting at 250 μM, 15 °C, global fit 1:1 model
T1 construct: Full length recombinant SMYD3 was produced as previously reported; made in house; host or cells: E. coli BL21(DE3), in some cases Rosetta 2
T1 sequence (Q9H7B4 1-428): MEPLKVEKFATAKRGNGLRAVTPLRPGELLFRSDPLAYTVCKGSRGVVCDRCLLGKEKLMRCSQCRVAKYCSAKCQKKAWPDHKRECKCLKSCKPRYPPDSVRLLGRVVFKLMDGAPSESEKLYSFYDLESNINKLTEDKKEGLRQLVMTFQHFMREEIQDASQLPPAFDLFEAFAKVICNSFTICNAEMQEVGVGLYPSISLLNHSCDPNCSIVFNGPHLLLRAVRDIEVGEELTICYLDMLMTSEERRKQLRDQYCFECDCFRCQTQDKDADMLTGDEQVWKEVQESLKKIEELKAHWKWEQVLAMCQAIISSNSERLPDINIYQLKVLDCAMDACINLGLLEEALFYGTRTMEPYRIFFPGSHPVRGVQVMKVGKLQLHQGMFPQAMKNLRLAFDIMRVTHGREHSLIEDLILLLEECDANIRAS
Procedure: Selected screening hits were also re-tested by conventional multi cycle kinetic analysis in order to confirm the interactions (some compounds were no longer available). Two variants of the GCI biosensor assay were set up, using different immobilisation levels, to allow the confirmation of hits over a broad range of affinities. […] The kinetics varied for the selected hits (ESI, ^† Fig. S2). All hits were not confirmed (ESI, ^† Fig. S1b).
(§1) All interaction kinetic experiments were conducted with a GCI–flow-based biosensor (WAVEdelta, Creoptix AG/Malvern Panalytical) and PCH WAVEchip (Creoptix AG/Malvern Panalytical) sensor chips. The sensor chips were conditioned using injections of borate buffer (10 mM sodium tetraborate pH 8.5, 1 M NaCl). The running buffer composition, if not otherwise stated, was TBS buffer (50 mM Tris, 150 mM NaCl, 0.5 mM TCEP, 0.05% Tween 20, 1% DMSO, pH 8). SMYD3 was diluted to the desired concentration in 10 mM bis-Tris (pH 7.0) and amine coupled to the sensor surface of the PCH sensor chip. The sensor chip was functionalized at 25 °C by immobilising SMYD3 with EDC and NHS (Xantec) using an injection time of 420 s and a flow rate of 10 μL min^−1. The immobilisation levels ranged from 5000 pg mm^−2 to 18 500 pg mm^−2 surface mass to enable analysis of fragments spanning a broad range of affinities. After immobilization, the surface was deactivated with a running buffer containing 50 mM Tris for 420 s. The GCI data referencing and analysis were performed using WAVEcontrol V4.5 (Creoptix AG).
(§2) Kinetic measurements with controls and fragments were performed at 15 °C. Analysis of controls and follow up of hits was done using the multi cycle kinetic (MCK) injection of a concentration series for the same time, with a two-fold serial dilution starting at 250 μM for each compound. Solvent correction was performed ranging from 0.5–1.8% DMSO. Blank samples of the running buffer, 1× TBS (50 mM Tris, 150 mM NaCl, 0.5 mM TCEP, 0.05% Tween 20, 1% DMSO, pH 8), were injected during the measurements every fifth cycle. The experimental design illustrated in Fig. 1 was used for the screening against all four surfaces. The sensorgrams were adjusted to account for solvent correction and blank subtraction. Kinetic fitting was performed with the Direct Kinetics engine of WAVEcontrol software V4.5 (Creoptix AG) with a suitable fitting model.
FL06268 Superstoichiometric and
Figure 1. Examples of sensorgrams from multicycle kinetic experiments with initial fragment hits and SMYD3. A)
Fragments for which crystal structures of the complex with SMYD3 were obtained. A global fit of the sensorgrams
crystal structures were not obtained. […]

[2] = target: T2, SMYD3 in complex with active site-specific tight-binding inhibitor EPZ031686 (Homo sapiens, UniProt Q9H7B4); assay: GCI biosensor kinetic screening, active site blocked SMYD3 surface
T2 construct: Full length recombinant SMYD3 was produced as previously reported; made in house; host or cells: E. coli BL21(DE3), in some cases Rosetta 2
T2 sequence (Q9H7B4 1-428): T1 sequence (Q9H7B4 1-428)
Description: (§3) A multiplexed screening assay was set up with three different SMYD3 surfaces and a blank reference surface in flow channels 1–4 (FC1–FC4) (Fig. 2a), as described previously.[5] The apo SMYD3 surface detected fragments interacting anywhere on SMYD3, while a SMYD3 surface blocked by active site-specific tight-binding inhibitor EPZ031686 detected compounds binding elsewhere. The denatured surface served as a reference, detecting fragments binding to unfolded proteins, also potentially present to a significant degree in the other two surfaces.
(§4) The library was screened using the approach described in Fig. 1, i.e. injection of fragments at 250 μM for increasing durations of time in a single cycle, using a flow rate of 100 μL min^−1, data acquisition set to 40 Hz and with an association time of 5 s and dissociation of 20 s. Each fragment was addressed to all four channels and interactions with the native and blocked surfaces compared. The experimental conditions were chosen to ensure that the assay could reliably characterize the fast and transient interactions expected from typical fragments.
(§5) The kinetic screening of 1056 compounds was successfully completed in 72 hours. […] Hits were identified with full kinetic information using dissociation phases.
as §1, §2

SMYD3 [3] = target: T1, SMYD3; assay: X-ray crystallography of SMYD3-fragment complexes (co-crystallization and soaking); set-up: key to XRC: success or failure of crystallization in complex with SMYD3: The success (+) or failure (−) of crystallization in complex with SMYD3; The success (+) or failure (−) of crystallization in complex with SMYD3; conditions: 5 mM fragment co-crystallization or soaking
Description: To identify binding sites and binding modes, the fragment hits (Table 1) were used in both co-crystallization and soaking experiments to obtain SMYD3-fragment co-crystals for X-ray crystallographic analyses. Diffraction data of 1.6–1.9 Å maximum resolution were obtained for four fragments (Fig. 5). For data collection and refinement statistics, see ESI, ^† Table S1.
Four new sites were thus identified.
Polder (F0–Fc) maps (Fig. 5, right) were generated to establish whether the observed electron density features were more likely to represent background noise or to belong to bound fragments. These omit maps are generated upon exclusion of the ligand and surrounding solvent from the model, which aids in visualizing weak densities. […] For fragments FL01507, FL08580 and FL08619, a comparison of the maps obtained after refinement with a bound fragment with maps obtained upon their replacement with either glycerol or acetate, which were present in the crystallization or cryo-protectant solutions, respectively, was required.
8 mg mL^−1 of SMYD3 in storage buffer (TBS buffer containing 2 mM DTT) was pre-incubated for 4–8 hours with 5 mM of a respective fragment hit compound and 10% (v/v) DMSO. Subsequently, 1 μL of this solution was mixed with an equal volume of reservoir solution (100 mM Tris, 100 mM magnesium acetate, 15–17% PEG3350, pH 8.25–8.75) to create the drops for co-crystallization by hanging drop vapour diffusion performed at 20 °C. Needle-like co-crystals nucleated within 12 h of equilibration against the reservoir. In addition, crystals of SMYD3 obtained in ligand-free crystallization setups were soaked with fragment solution prior to freezing. All crystals were cryo-protected via brief immersion in reservoir solution supplemented with 10% (v/v) glycerol.
Diffraction data were collected at beamline ID23-1 of the European Synchrotron Radiation Facility (ESRF, Grenoble, France). Data were indexed, auto-processed, scaled and merged on-site using the implemented data processing routines and software. Fragment-associated electron density features were identified upon data analysis with the Pipedream system (version 1.4.0, Global Phasing Ltd, Cambridge, United Kingdom), which includes data processing with autoPROC,[14] molecular replacement with Phaser,[15] structure refinement with BUSTER version 2.10.4 (Global Phasing Ltd, Cambridge, United Kingdom), automated ligand fitting with Rhofit (Global Phasing Ltd, Cambridge, United Kingdom) and BUSTER post-refinement.[16] Refinement was done with Phenix,[17] and model building with Coot.[18] (F0–Fc) difference density maps for models, from which ligand atoms and surrounding water molecules were removed, were generated using Phenix.

SMYD3 (apo, native) = target: T3, SMYD3 (apo, native) (Homo sapiens, UniProt Q9H7B4); assay: GCI biosensor kinetic screening, apo SMYD3 surface; type: binding; conditions: control SAH at 25 μM, multiple injection design
T3 construct: Full length recombinant SMYD3 was produced as previously reported; made in house; host or cells: E. coli BL21(DE3), in some cases Rosetta 2
T3 sequence (Q9H7B4 1-428): T1 sequence (Q9H7B4 1-428)
Description: as §3
After preparing the sensor surface and immobilising SMYD3, the functionality of the surface was assessed via analysis of interactions with the co-factor product S-adenosyl-homocysteine (SAH). It was used as a control in all experiments, confirming that sensor surfaces were intact. This was done using the novel multiple injection-based experimental design (Fig. 1) at 25 μM, i.e. in a weak binder mode (Fig. 2b).
as §4, §5, §1, §2

SMYD3 [4] = target: T1, SMYD3; set-up: method as in PMID 31389685; conditions: previously obtained, SPR-based biosensor assay, cited from earlier work

Row | Structure (SMILES) | Outcome of multicycle kinetic experiment (sensorgram assessment) (SMYD3 [1]) | LE (ligand efficiency) ([2]; LE = −RT ln(KD)/n, blocked SMYD3 surface) | Kd ([2]; initial kinetic screening, fragment 250 μM, 15 °C, SMYD3 blocked by EPZ031686) | kd ([2]; initial kinetic screening, fragment 250 μM, 15 °C, SMYD3 blocked by EPZ031686, 1:1 model) | kon at 250 µM ([2]; initial kinetic screening, fragment 250 μM, 15 °C, SMYD3 blocked by EPZ031686, 1:1 model, read-out: ka) | XRC: success or failure of crystallization in complex with SMYD3 (SMYD3 [3]) | ka (SMYD3 (apo, native)) | kd (SMYD3 (apo, native)) | ka (SMYD3 [4]) | kd (SMYD3 [4]) | Kd (SMYD3 [4]; read-out: derived KD)
1 | O=C(O)C(=O)c1ccccc1 [FL08619] | Far from saturation | 0.55 (kcal^-1 mol^-1)/HA | 38 µM | 1.06 s⁻¹ | 27300 M⁻¹ s⁻¹ | (+) | – | – | – | – | –
2 | Nc1ncnc2c1ncn2[C@@H]1O[C@H](CSCC[C@H](N)C(=O)O)[C@@H](O)[C@H]1O [SAH, S-adenosyl-homocysteine] | – | – | – | – | – | – | 304000 to 3.52e+06 M⁻¹ s⁻¹ | 0.748 to 4.92 s⁻¹ | (2.7 ± 0.1) × 10^6 M^-1 s^-1 | 1.6 ± 0.9 s⁻¹ | 0.611 ± 0.002 µM
